Test results published in US8759520B2, “Compounds for treating cancer” (Boehringer Ingelheim International GmbH, priority 2008, dated 2014).

Each molecule was assayed against Bcl-2 (Homo sapiens, UniProt P10415) (assay: Homogeneous HTS assay for inhibitors of the Bcl-2 : Bak (72-87) BH3 domain interaction, fluorescence polarisation (2D-FIDA)). Settings: not given.
Format: binding
Description: FIG. 1 is a schematic drawing of the Bcl-2: Bak (72-87) interaction assay based on fluorescence polarisation.
The homogeneous HTS assay for inhibitors of the Bcl-2 is shown schematically in FIG. 1. BH3 domain interaction is based on fluorescence polarisation. The inherent rotational diffusion of the Bak BH3 domain derived fluorescent labelled peptide decreases upon binding to Bc1-2. This shift in rotational diffusion is quantitated using the two-dimensional fluorescence intensity distribution analysis (2D-FIDA; Kask et al. 2000, Biophys. J. 78: 1703-1713).
Two different BH3 domain derived peptide ligands were synthesised and subsequently fluorescently labelled: • a 16mer peptide covering amino acids 72-87 of the Bak protein; this peptide had been used by Wang and co-workers and Holinger and coworkers in their Bcl-2 protein binding studies; Wang and co-workers reported an equilibrium binding constant KD of ˜0.2 μM to Bcl-2 protein; • peptide sequence: GQVGRQLAIIGDDINR—N (Wang et al. 2002, Proc. Natl. Acad. Sci. U.S.A. 97: 7124-7129; Holinger et al. 1999, J. Biol. Chem. 274: 13298-13304).

Chain of Bcl-2 (P10415 whole entry, species assumed, the tested form may be a part): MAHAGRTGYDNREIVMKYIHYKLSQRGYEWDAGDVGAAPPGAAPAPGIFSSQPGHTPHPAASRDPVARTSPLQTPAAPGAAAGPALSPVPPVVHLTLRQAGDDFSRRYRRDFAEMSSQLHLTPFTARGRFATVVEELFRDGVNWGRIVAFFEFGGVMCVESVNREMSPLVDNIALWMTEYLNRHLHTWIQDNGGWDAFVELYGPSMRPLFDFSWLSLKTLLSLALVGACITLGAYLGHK

Row | SMILES | IC50
1 | N=c1n(CCCOc2ccc(F)cc2)c2ccccc2n1Cc1ccc(Cl)nc1 [Compound 52, 1-(6-Chloro-pyridin-3-ylmethyl)-3-[3-(4-fluoro-phenoxy)-propyl]-1,3-dihydro-benzoimidazol-2-ylideneamine] | 11 to 100 µM

Same assay, conditions: fluorescence polarisation, fluorescent labelled Bak BH3 domain derived peptide; read-out: IC50 [μM] Bcl-2

Row | SMILES | IC50
2 | N=c1n(CCSc2ccccc2)c2ccccc2n1Cc1ccc(Br)cc1 [Compound 7, 1-(4-Bromo-benzyl)-3-(2-phenylsulfanyl-ethyl)-1,3-dihydro-benzoimidazol-2-ylideneamine] | 11 to 100 µM
3 | CC1(C)CCC(c2ccc(Cl)cc2)=C(CN2CCN(c3ccc(Cn4c(=N)n(CCCOc5ccccc5)c5ccccc54)cc3)CC2)C1 [Compound 32, 1-(4-{4-[2-(4-Chloro-phenyl)-5,5-dimethyl-cyclohex-1-enylmethyl]-piperazin-1-yl}-benzyl)-3-(3-phenoxy-propyl)-1,3-dihydro-benzoimidazol-2-ylideneamine] | < 10 µM
4 | CC(C)(C)c1ccc(Cn2c(=N)n(CC(O)COc3ccccc3)c3ccccc32)cc1 (centres unmarked) [Compound 104, 1-[3-(4-tert-Butyl-benzyl)-2-imino-2,3-dihydro-benzoimidazol-1-yl]-3-phenoxy-propan-2-ol] | 11 to 100 µM
5 | N=c1n(CCCOc2ccc(F)cc2)c2ccccc2n1Cc1ccc(CN2CCN(c3ccc(Cl)cc3)CC2)cc1 [Compound 42, 1-{4-[4-(4-Chloro-phenyl)-piperazin-1-ylmethyl]-benzyl}-3-[3-(4-fluoro-phenoxy)-propyl]-1,3-dihydro-benzoimidazol-2-ylideneamine] | 11 to 100 µM
6 | N=c1n(CCCOc2cccc(C(=O)O)c2)c2ccccc2n1Cc1ccc(N2CCN(Cc3ccccc3-c3ccc(Cl)cc3)CC2)cc1 [Compound 74, 3-[3-(3-{4-[4-(4′-Chloro-biphenyl-2-ylmethyl)-piperazin-1-yl]-benzyl}-2-imino-2,3-dihydro-benzoimidazol-1-yl)-propoxy]-benzoic acid] | < 10 µM
7 | COc1ccc(OCC(O)Cn2c(=N)n(Cc3ccccc3)c3ccccc32)cc1 (centres unmarked) [Compound 88, 1-(3-Benzyl-2-imino-2,3-dihydro-benzoimidazol-1-yl)-3-(4-methoxy-phenoxy)-propan-2-ol] | 11 to 100 µM
8 | N=c1n(CCCOc2ccc(F)cc2)c2ccccc2n1Cc1ccc(N2CCN(Cc3ccccc3-c3ccc(Cl)cc3)CC2)cc1 [Compound 24, 1-{4-[4-(4′-Chloro-biphenyl-2-ylmethyl)-piperazin-1-yl]-benzyl}-3-[3-(4-fluoro-phenoxy)-propyl]-1,3-dihydro-benzoimidazol-2-ylideneamine] | < 10 µM
9 | N=c1n(CCCOc2ccc(F)cc2)c2ccccc2n1Cc1ccc(CNCC(=O)Nc2ccccc2)cc1 [Compound 51, 2-(4-{3-[3-(4-Fluoro-phenoxy)-propyl]-2-imino-2,3-dihydro-benzoimidazol-1-ylmethyl}-benzylamino)-N-phenyl-acetamide] | 11 to 100 µM
10 | N=c1n(Cc2cccc(Br)c2)c2ccccc2n1CC(O)COc1ccc(F)cc1 (centres unmarked) [Compound 76, 1-[3-(3-Bromo-benzyl)-2-imino-2,3-dihydro-benzoimidazol-1-yl]-3-(4-fluoro-phenoxy)-propan-2-ol] | 11 to 100 µM
11 | N=c1n(CCCOc2ccc(F)cc2)c2ccccc2n1Cc1ccc(-c2ccc(F)cc2)cc1 [Compound 16, 1-(4′-Fluoro-biphenyl-4-ylmethyl)-3-[3-(4-fluoro-phenoxy)-propyl]-1,3-dihydro-benzoimidazol-2-ylideneamine] | 11 to 100 µM
12 | N=c1n(CCCOc2ccc(F)cc2)c2ccccc2n1Cc1cccc(C(=O)O)c1 [Compound 72, 3-{3-[3-(4-Fluoro-phenoxy)-propyl]-2-imino-2,3-dihydro-benzoimidazol-1-ylmethyl}-benzoic acid] | 11 to 100 µM
13 | Cn1c(=N)n(Cc2ccc(N3CCN(Cc4ccccc4-c4ccccc4)CC3)cc2)c2ccccc21 [Compound 17, 1-[4-(4-Biphenyl-2-ylmethyl-piperazin-1-yl)-benzyl]-3-methyl-1,3-dihydro-benzoimidazol-2-ylideneamine] | 11 to 100 µM
14 | N=c1n(CCCOc2ccc(F)cc2)c2ccccc2n1Cc1ccc(CN2CCN(c3ccccc3)CC2)cc1 [Compound 40, 1-[3-(4-Fluoro-phenoxy)-propyl]-3-[4-(4-phenyl-piperazin-1-ylmethyl)-benzyl]-1,3-dihydro-benzoimidazol-2-ylideneamine] | 11 to 100 µM
15 | N=c1n(CCCOc2ccc(F)cc2)c2ccc(F)cc2n1Cc1ccc(N2CCN(Cc3ccccc3-c3ccccc3)CC2)cc1 [Compound 63, 3-[4-(4-Biphenyl-2-ylmethyl-piperazin-1-yl)-benzyl]-5-fluoro-1-[3-(4-fluoro-phenoxy)-propyl]-1,3-dihydro-benzoimidazol-2-ylideneamine] | 11 to 100 µM
16 | N=c1n(CCCOc2ccccc2)c2ccccc2n1Cc1cccc(N2CCN(Cc3ccccc3-c3ccccc3)CC2)c1 [Compound 29, 1-[3-(4-Biphenyl-2-ylmethyl-piperazin-1-yl)-benzyl]-3-(3-phenoxy-propyl)-1,3-dihydro-benzoimidazol-2-ylideneamine] | < 10 µM
17 | N=c1n(Cc2ccc(Br)cc2)c2ccccc2n1CC(O)COc1ccc(F)cc1 (centres unmarked) [Compound 77, 1-[3-(4-Bromo-benzyl)-2-imino-2,3-dihydro-benzoimidazol-1-yl]-3-(4-fluoro-phenoxy)-propan-2-ol] | < 10 µM
18 | N=c1n(CCCOc2ccc(F)cc2)c2ccccc2n1Cc1csc(N2CCN(Cc3ccccc3-c3ccccc3)CC2)n1 [Compound 35, 1-[2-(4-Biphenyl-2-ylmethyl-piperazin-1-yl)-thiazol-4-ylmethyl]-3-[3-(4-fluoro-phenoxy)-propyl]-1,3-dihydro-benzoimidazol-2-ylideneamine] | < 10 µM
19 | CC1(C)CCC(c2ccc(Cl)cc2)=C(CN2CCN(c3ccc(Cn4c(=N)n(CCCOc5ccc(F)cc5)c5ccc(F)cc54)cc3)CC2)C1 [Compound 64, 3-(4-{4-[2-(4-Chloro-phenyl)-5,5-dimethyl-cyclohex-1-enylmethyl]-piperazin-1-yl}-benzyl)-5-fluoro-1-[3-(4-fluoro-phenoxy)-propyl]-1,3-dihydro-benzoimidazol-2-ylideneamine] | < 10 µM
20 | N=c1n(Cc2ccc(N3CCN(Cc4ccccc4-c4ccccc4)CC3)cc2)c2ccccc2n1CC(O)COc1ccc(F)cc1 (centres unmarked) [Compound 83, 1-{3-[4-(4-Biphenyl-2-ylmethyl-piperazin-1-yl)-benzyl]-2-imino-2,3-dihydro-benzoimidazol-1-yl}-3-(4-fluoro-phenoxy)-propan-2-ol] | < 10 µM
21 | CC1(C)CCC(c2ccc(Cl)cc2)=C(CN2CCN(c3cccc(Cn4c(=N)n(CCCOc5ccc(F)cc5)c5ccccc54)c3)CC2)C1 [Compound 31, 1-(3-{4-[2-(4-Chloro-phenyl)-5,5-dimethyl-cyclohex-1-enylmethyl]-piperazin-1-yl}-benzyl)-3-[3-(4-fluoro-phenoxy)-propyl]-1,3-dihydro-benzoimidazol-2-ylideneamine] | < 10 µM
22 | N=c1n(Cc2ccccc2)c2ccccc2n1Cc1ccc(N2CCN(Cc3ccccc3-c3ccccc3)CC2)cc1 [Compound 18, 1-Benzyl-3-[4-(4-biphenyl-2-ylmethyl-piperazin-1-yl)-benzyl]-1,3-dihydro-benzoimidazol-2-ylideneamine] | < 10 µM
23 | N=c1n(CCCOc2ccc(F)cc2)c2ccccc2n1Cc1ccc(CNCC(=O)Nc2ccc(Cl)cc2)cc1 [Compound 45, N-(4-Chloro-phenyl)-2-(4-{3-[3-(4-fluoro-phenoxy)-propyl]-2-imino-2,3-dihydro-benzoimidazol-1-ylmethyl}-benzylamino)-acetamide] | 11 to 100 µM
24 | N=c1n(CCCOc2ccc(F)cc2)c2ccccc2n1Cc1ccccc1N1CCN(Cc2ccccc2-c2ccccc2)CC1 [Compound 38, 1-[2-(4-Biphenyl-2-ylmethyl-piperazin-1-yl)-benzyl]-3-[3-(4-fluoro-phenoxy)-propyl]-1,3-dihydro-benzoimidazol-2-ylideneamine] | < 10 µM
25 | N=c1n(CCCOc2ccc(F)cc2)c2cc(C(F)(F)F)ccc2n1Cc1ccc(Br)cc1 [Compound 60, 1-(4-Bromo-benzyl)-3-[3-(4-fluoro-phenoxy)-propyl]-5-trifluoromethyl-1,3-dihydro-benzoimidazol-2-ylideneamine] | 11 to 100 µM
26 | CCOC(=O)c1cccc(OCCCn2c(=N)n(Cc3ccc(N4CCN(Cc5ccccc5-c5ccc(Cl)cc5)CC4)cc3)c3ccccc32)c1 [Compound 73, 3-[3-(3-{4-[4-(4′-Chloro-biphenyl-2-ylmethyl)-piperazin-1-yl]-benzyl}-2-imino-2,3-dihydro-benzoimidazol-1-yl)-propoxy]-benzoic acid ethyl ester] | < 10 µM
27 | N=c1n(CCCOc2ccc(F)cc2)c2ccccc2n1Cc1ccc(N2CCN(Cc3ccc(Cl)cc3)CC2)cc1 [Compound 19, 1-{4-[4-(4-Chloro-benzyl)-piperazin-1-yl]-benzyl}-3-[3-(4-fluoro-phenoxy)-propyl]-1,3-dihydro-benzoimidazol-2-ylideneamine] | 11 to 100 µM
28 | N=c1n(CCCOc2cccc(C(=O)O)c2)c2ccccc2n1Cc1ccc(Br)cc1 [Compound 85, 3-{3-[3-(4-Bromo-benzyl)-2-imino-2,3-dihydro-benzoimidazol-1-yl]-propoxy}-benzoic acid] | 11 to 100 µM
29 | N=c1n(CCCOc2ccc(F)cc2)c2ccccc2n1Cc1cccc(N2CCN(Cc3ccccc3-c3ccc(Cl)cc3)CC2)c1 [Compound 27, 1-{3-[4-(4′-Chloro-biphenyl-2-ylmethyl)-piperazin-1-yl]-benzyl}-3-[3-(4-fluoro-phenoxy)-propyl]-1,3-dihydro-benzoimidazol-2-ylideneamine] | < 10 µM
